Literature values, collected in US10765664B2, “Treatment of infectious diseases” (CHILDREN'S MEDICAL CENTER CORPORATION, priority 2015, dated 2020).

Tested on: nonreplicating MTb
Settings: extremely high inocula; cited from earlier work

In the case of `CC(=O)Oc1ccccc1C(=O)Nc1ncc([N+](=O)[O-])s1` [NTZ, [2-[(5-nitro-1,3-thiazol-2-yl)carbamoyl]phenyl] ethanoate], the resistance mutants is listed as “no evidence of resistance mutants”.
